How the values were obtained:
[1] = tested on: primary RGCs; assay: Primary RGC survival (CellTiter-Glo) after immunopanning / colchicine; type: cell-based, mouse; details: combined knockdown of both DLK and LZK
Description: For this screen, a high-throughput method was developed for knocking down gene expression in primary RGCs, from male and female C57Bl/6 mice (7), with small interfering RNA oligonucleotides (siRNAs) and coupled it with a quantitative assay of RGC survival (CellTiter-Glo, Promega) (5).
In order to identify these other targets, the kinome screen was modified to include Dlk siRNA in every well and sensitize it to those library siRNAs that synergized with DLK knockdown to further increase RGC survival (FIG. 19A). The other modification was to allow 48 hours for extant protein turnover, before exacerbating the immunopanning injury with colchicine, a microtubule destabilizer that has been used to model axon injury in vitro and in vivo (15, 16).

[2] = tested on: hESC-derived RGCs; assay: Survival of hESC-derived RGCs after colchicine challenge; type: cell-based, human; details: two days after colchicine (1 μM); tozasertib (1 μM), Genentech inhibitor 123 (0.1 μM)
Description: FIG. 69A depicts survival (±SD) of hESC-derived RGCs two days after a challenge with vehicle or colchicine (1 μM) in the presence of the DLK/LZK inhibitors tozasertib (1 μM), Genentech inhibitor 123 (0.1 μM) or a vehicle control. FIG. 69B depicts survival (±SD) of hESC-derived RGCs two days after a challenge with colchicine (1 μM) in the presence of increasing doses of sunitinib.

[3] = tested on: primary RGCs; details: compared with DLK knockdown or knockout alone; cited from earlier work
[4] = tested on: RGCs; details: rat optic nerve transection and glaucoma models; cited from earlier work
[5] = target: T1, DLK (Homo sapiens, UniProt Q12852); details: published kinase inhibitor profiling data; cited from earlier work
T1 sequence (Q12852 1-859): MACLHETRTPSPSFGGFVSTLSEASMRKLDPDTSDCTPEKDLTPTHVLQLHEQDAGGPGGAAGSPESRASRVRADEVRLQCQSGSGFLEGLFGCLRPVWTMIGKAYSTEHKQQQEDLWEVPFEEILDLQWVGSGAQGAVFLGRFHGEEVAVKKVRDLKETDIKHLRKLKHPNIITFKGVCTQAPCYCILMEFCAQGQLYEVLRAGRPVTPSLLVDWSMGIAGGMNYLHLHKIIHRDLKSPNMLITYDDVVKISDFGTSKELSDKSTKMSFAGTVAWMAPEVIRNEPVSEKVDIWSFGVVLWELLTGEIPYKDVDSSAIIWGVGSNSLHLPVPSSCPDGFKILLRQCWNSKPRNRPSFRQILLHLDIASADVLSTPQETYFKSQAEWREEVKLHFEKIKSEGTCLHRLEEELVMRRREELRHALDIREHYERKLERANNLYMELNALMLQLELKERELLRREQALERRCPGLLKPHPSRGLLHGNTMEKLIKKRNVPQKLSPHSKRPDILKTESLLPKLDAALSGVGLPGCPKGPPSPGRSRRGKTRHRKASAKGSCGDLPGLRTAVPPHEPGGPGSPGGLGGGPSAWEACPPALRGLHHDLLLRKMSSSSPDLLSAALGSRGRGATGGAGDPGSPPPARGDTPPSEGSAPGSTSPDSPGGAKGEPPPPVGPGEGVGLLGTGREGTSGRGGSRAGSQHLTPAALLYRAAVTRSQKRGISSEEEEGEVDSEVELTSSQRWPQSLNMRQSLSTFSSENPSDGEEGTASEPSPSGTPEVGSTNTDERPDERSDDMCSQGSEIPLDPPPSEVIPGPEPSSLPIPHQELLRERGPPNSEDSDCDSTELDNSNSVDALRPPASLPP

[6] = target: T2, LZK (Homo sapiens, UniProt O43283); details: published kinase inhibitor profiling data; cited from earlier work
T2 sequence (O43283 1-966): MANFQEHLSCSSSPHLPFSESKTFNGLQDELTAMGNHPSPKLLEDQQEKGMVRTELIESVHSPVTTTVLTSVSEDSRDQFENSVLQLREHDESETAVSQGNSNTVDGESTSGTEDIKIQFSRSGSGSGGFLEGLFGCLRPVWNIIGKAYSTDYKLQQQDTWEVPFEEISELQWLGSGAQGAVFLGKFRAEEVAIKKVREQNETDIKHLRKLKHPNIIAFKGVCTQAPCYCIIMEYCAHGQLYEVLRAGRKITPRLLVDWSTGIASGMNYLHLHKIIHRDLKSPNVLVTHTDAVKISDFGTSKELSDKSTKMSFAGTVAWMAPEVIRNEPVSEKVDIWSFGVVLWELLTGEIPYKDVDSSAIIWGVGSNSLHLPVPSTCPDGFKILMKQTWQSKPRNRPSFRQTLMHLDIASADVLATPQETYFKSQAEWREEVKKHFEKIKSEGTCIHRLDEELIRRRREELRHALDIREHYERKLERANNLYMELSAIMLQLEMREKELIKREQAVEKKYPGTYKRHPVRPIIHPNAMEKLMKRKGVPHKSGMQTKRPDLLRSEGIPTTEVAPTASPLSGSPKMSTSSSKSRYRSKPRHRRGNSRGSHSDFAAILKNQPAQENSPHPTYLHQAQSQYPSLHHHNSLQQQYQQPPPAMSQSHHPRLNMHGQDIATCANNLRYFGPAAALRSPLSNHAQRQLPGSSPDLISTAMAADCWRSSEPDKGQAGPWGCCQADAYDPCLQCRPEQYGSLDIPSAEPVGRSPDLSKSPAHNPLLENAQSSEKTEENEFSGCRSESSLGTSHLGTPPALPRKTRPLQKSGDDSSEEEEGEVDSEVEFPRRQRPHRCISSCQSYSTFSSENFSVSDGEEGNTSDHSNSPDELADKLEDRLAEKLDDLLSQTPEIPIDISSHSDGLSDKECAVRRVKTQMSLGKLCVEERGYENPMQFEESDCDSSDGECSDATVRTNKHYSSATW

[7] = tested on: Dlk; assay: scAAV/lentivirus transduction of RGCs from Cas9 mouse; BglII assay for Dlk gene editing; type: cell-based; details: gRNA delivered by ssAAV, Cas9 present from the mouse
Description: Cells were harvested from the Cas9 mouse, and transduced in vitro. […] The construct was packaged to produce a self-complementary AAV (scAAV). […] Cells were harvested from the Cas9 mouse, and transduced in vitro. […] The gRNA (mm079) was delivered by ssAAV and Cas9 was present from the mouse
Titration of scAAV virus transducing either WT RGC or RGCs derived from the Cas9 mouse. […] In this assay, we are assaying for cutting by loss of a restriction enzyme site. […] A construct was generated using the H1 promoter to express a gRNA (shown in black) and mCherry simultaneously. […] The construct was packaged to produce a self-complementary AAV (scAAV).
To test this system, an AAV construct was generated that used the H1 promoter to express an mCherry-histone 2B fusion in the Pol II direction and the Dlk #4 gRNA (5′[sequence] 3′ (SEQ ID NO: 163)), which conveniently targets a BglII site (FIGS. 19G and 1H), in the Pol III direction (Dlk gRNA:H1:H2B-mCherry). […]
For restriction analysis, genomic DNA was extracted by resuspending cells in QuickExtract solution (Epicentre, Madison, WI), incubating at 65° C. for 20 min, and then at 98° C. for 20 min. The extract solution was used directly or cleaned using DNA Clean and Concentrator (Zymo Research, Irvine, CA), and quantitated by NanoDrop (Thermo 30 Fisher Scientific).

Row | Molecule | RGC survival on addition of drug to combined knockdown of DLK and LZK [1] | survival of hESC-derived RGCs [2] | RGC survival in vitro [3] | protection of RGCs [4] | inhibitor of DLK [5] | inhibition of LZK [6] | targeting as detected by a BglII assay [7] [%]
1 | Cc1cc(Nc2cc(N3CCN(C)CC3)nc(Sc3ccc(NC(=O)C4CC4)cc3)n2)[nH]n1 [tozasertib] | had no effect | promotes the survival of human ESC-derived RGCs | consistently improved RGC survival in vitro more than DLK knockdown or knockout alone | protected RGCs in both the rat optic nerve transection and glaucoma models | identified as an inhibitor of DLK | does inhibit LZK | 
2 | GAAGAAGGTTCGAGATCTCAAGG (chemistry not given here) [mm079] |  |  |  |  |  |  | ~100
